The NIST ThermoML archive (doi:10.1021/je900864n)
Numbers after ± are expanded uncertainties.

Legend:
[1] = refractive index (Na D-line) (dimensionless); settings: 101.33 kPa, Liquid, Standard Abbe refractometry
[2] = 101.33 kPa, Liquid
[3] = refractive index (other wavelength) (dimensionless); wn = mass fraction of the nth substance listed; settings: 101 kPa, Liquid, Wavelength=632.8 nm, Standard Abbe refractometry

Work on `OCCCCO` [1,4-butanediol] yielded a refractive index ([1]; 294.23 K) of 1.4447 ± 0.0005, a refractive index ([1]; 297.67 K) of 1.4437 ± 0.0005 and a refractive index ([1]; 300.86 K) of 1.4428 ± 0.0005. It also gave a refractive index ([1]; 303.23 K) of 1.4422 ± 0.0005, a refractive index ([1]; 306.21 K) of 1.4414 ± 0.0005 and a refractive index ([1]; 309.13 K) of 1.4406 ± 0.0005. The refractive index ([1]; 313.69 K) was 1.4393 ± 0.0005, the mass density ([2]; 293.15 K) was 1016.37 ± 0.5 kg/m3 and the mass density ([2]; 298.15 K) was 1013.04 ± 0.49 kg/m3. For the same compound, the mass density ([2]; 303.15 K) was 1009.96 ± 0.48 kg/m3, the mass density ([2]; 308.15 K) was 1006.75 ± 0.47 kg/m3 and the mass density ([2]; 313.15 K) was 1003.55 ± 0.46 kg/m3. For the same compound, the mass density ([2]; 318.15 K) was 1000.72 ± 0.45 kg/m3.
Work on `OCCCCO` [1,4-butanediol] + CCCCn1cc[n+](C)c1.F[B-](F)(F)F yielded a refractive index ([3]; 296.24 K, w2 = 0.894) of 1.4221 ± 0.0004, a refractive index ([3]; 298.19 K, w2 = 0.894) of 1.4216 ± 0.0004 and a refractive index ([3]; 300.13 K, w2 = 0.894) of 1.4211 ± 0.0004. The refractive index ([3]; 301.24 K, w2 = 0.786) was 1.4216 ± 0.0004, the refractive index ([3]; 302.15 K, w2 = 0.894) was 1.4206 ± 0.0004 and the refractive index ([3]; 303.16 K, w2 = 0.786) was 1.4211 ± 0.0004. It also gave a refractive index ([3]; 303.25 K, w2 = 0.686) of 1.4223 ± 0.0004, a refractive index ([3]; 304.14 K, w2 = 0.894) of 1.42 ± 0.0004 and a refractive index ([3]; 304.22 K, w2 = 0.579) of 1.4237 ± 0.0004. It also gave a refractive index ([3]; 304.24 K, w2 = 0.786) of 1.4208 ± 0.0004, a refractive index ([3]; 305.26 K, w2 = 0.686) of 1.4218 ± 0.0004 and a refractive index ([3]; 306.24 K, w2 = 0.579) of 1.4231 ± 0.0004. For the same compound, the refractive index ([3]; 306.25 K, w2 = 0.094) was 1.4367 ± 0.0004, the refractive index ([3]; 306.69 K, w2 = 0.894) was 1.4194 ± 0.0004 and the refractive index ([3]; 306.7 K, w2 = 0.484) was 1.4247 ± 0.0004. The refractive index ([3]; 307.2 K, w2 = 0.094) was 1.4364 ± 0.0004, the refractive index ([3]; 307.21 K, w2 = 0.786) was 1.42 ± 0.0004 and the refractive index ([3]; 307.29 K, w2 = 0.686) was 1.4212 ± 0.0004. For the same compound, the refractive index ([3]; 308.22 K, w2 = 0.484) was 1.4243 ± 0.0004, the refractive index ([3]; 308.24 K, w2 = 0.094) was 1.4361 ± 0.0004 and the refractive index ([3]; 308.27 K, w2 = 0.579) was 1.4225 ± 0.0004. The refractive index ([3]; 309.2 K, w2 = 0.686) was 1.4207 ± 0.0004, the refractive index ([3]; 309.23 K, w2 = 0.094) was 1.4358 ± 0.0004 and the refractive index ([3]; 309.24 K, w2 = 0.786) was 1.4195 ± 0.0004. For the same compound, the refractive index ([3]; 309.26 K, w2 = 0.381) was 1.4264 ± 0.0004, the refractive index ([3]; 309.55 K, w2 = 0.19) was 1.4322 ± 0.0004 and the refractive index ([3]; 309.73 K, w2 = 0.484) was 1.4238 ± 0.0004. The refractive index ([3]; 309.88 K, w2 = 0.286) was 1.4289 ± 0.0004, the refractive index ([3]; 310.17 K, w2 = 0.094) was 1.4355 ± 0.0004 and the refractive index ([3]; 310.22 K, w2 = 0.579) was 1.422 ± 0.0004. For the same compound, the refractive index ([3]; 310.64 K, w2 = 0.381) was 1.426 ± 0.0004, the refractive index ([3]; 311.22 K, w2 = 0.286) was 1.4285 ± 0.0004 and the refractive index ([3]; 311.22 K, w2 = 0.686) was 1.4202 ± 0.0004. It also gave a refractive index ([3]; 311.25 K, w2 = 0.19) of 1.4317 ± 0.0004, a refractive index ([3]; 311.33 K, w2 = 0.484) of 1.4234 ± 0.0004 and a refractive index ([3]; 311.85 K, w2 = 0.786) of 1.4188 ± 0.0004. It also gave a refractive index ([3]; 312.19 K, w2 = 0.579) of 1.4214 ± 0.0004, a refractive index ([3]; 312.27 K, w2 = 0.094) of 1.4349 ± 0.0004 and a refractive index ([3]; 312.31 K, w2 = 0.381) of 1.4255 ± 0.0004. For the same compound, the refractive index ([3]; 312.78 K, w2 = 0.19) was 1.4312 ± 0.0004, the refractive index ([3]; 312.88 K, w2 = 0.484) was 1.4229 ± 0.0004 and the refractive index ([3]; 313 K, w2 = 0.286) was 1.4279 ± 0.0004. The refractive index ([3]; 313.28 K, w2 = 0.686) was 1.4196 ± 0.0004, the refractive index ([3]; 313.79 K, w2 = 0.381) was 1.4251 ± 0.0004 and the refractive index ([3]; 314.29 K, w2 = 0.19) was 1.4308 ± 0.0004. For the same compound, the refractive index ([3]; 314.29 K, w2 = 0.579) was 1.4208 ± 0.0004, the refractive index ([3]; 314.31 K, w2 = 0.484) was 1.4225 ± 0.0004 and the refractive index ([3]; 314.32 K, w2 = 0.094) was 1.4343 ± 0.0004. It also gave a refractive index ([3]; 314.39 K, w2 = 0.286) of 1.4275 ± 0.0004, a refractive index ([3]; 315.65 K, w2 = 0.381) of 1.4246 ± 0.0004 and a refractive index ([3]; 315.79 K, w2 = 0.286) of 1.4271 ± 0.0004. It also gave a refractive index ([3]; 316.13 K, w2 = 0.19) of 1.4302 ± 0.0004, a refractive index ([3]; 317.3 K, w2 = 0.19) of 1.4299 ± 0.0004 and a refractive index ([3]; 317.35 K, w2 = 0.286) of 1.4266 ± 0.0004. For the same compound, the refractive index ([3]; 317.38 K, w2 = 0.381) was 1.4241 ± 0.0004.
